The text below walks through data of ChEMBL document CHEMBL1125118, “Penta- and hexadienoic acid derivatives: a novel series of 5-lipoxygenase inhibitors” (J Med Chem, 1990).

One may read the IC50 as the concentration that gives 50% inhibition.

For assay [1], the system named is Mus musculus. The assay can be described thus: In vivo inhibition of AA induced ear oedema in mice following topical administration. Type of assay: functional.
Assay [2] deals with Mus musculus. The assay can be described thus: In vivo inhibition of ear oedema in mice following p.o. administration. As to conditions: po. It is filed as functional.
For assay [3], the target named is T1, Polyunsaturated fatty acid 5-lipoxygenase (Rattus norvegicus, UniProt P12527).
T1 sequence (P12527 whole entry): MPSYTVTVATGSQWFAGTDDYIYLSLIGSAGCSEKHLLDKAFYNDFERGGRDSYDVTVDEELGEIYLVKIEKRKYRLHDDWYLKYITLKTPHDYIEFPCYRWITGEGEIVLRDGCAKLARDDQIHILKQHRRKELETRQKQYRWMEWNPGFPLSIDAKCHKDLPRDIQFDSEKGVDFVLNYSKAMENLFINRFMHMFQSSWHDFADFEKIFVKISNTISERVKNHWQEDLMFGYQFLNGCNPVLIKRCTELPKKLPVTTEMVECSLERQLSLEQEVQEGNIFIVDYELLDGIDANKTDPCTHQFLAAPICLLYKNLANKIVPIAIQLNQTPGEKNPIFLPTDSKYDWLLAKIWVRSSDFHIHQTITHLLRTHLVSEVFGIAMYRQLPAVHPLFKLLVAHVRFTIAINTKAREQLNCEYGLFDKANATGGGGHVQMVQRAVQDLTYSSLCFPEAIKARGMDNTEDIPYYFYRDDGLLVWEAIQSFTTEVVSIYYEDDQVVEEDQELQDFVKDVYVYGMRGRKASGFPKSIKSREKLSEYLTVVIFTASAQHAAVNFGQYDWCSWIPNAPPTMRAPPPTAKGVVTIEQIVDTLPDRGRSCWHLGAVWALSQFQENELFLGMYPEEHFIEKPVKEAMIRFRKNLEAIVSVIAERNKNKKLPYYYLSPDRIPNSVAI
In words: Iin vitro inhibition of 5-lipoxygenase activity in rat basophil leukemia type 1(RBL1) cell homogenates, (reduction of [14C]-5-HETE formation).

The target of assay [4] is T1, Polyunsaturated fatty acid 5-lipoxygenase. The assay can be described thus: In vitro inhibition of 5-lipoxygenase in rat (peritoneal assay).
A further assay has as its target T2, Cyclooxygenase (Rattus norvegicus, UniProt P35355+Q63921).
T2 sequence (P35355 whole entry): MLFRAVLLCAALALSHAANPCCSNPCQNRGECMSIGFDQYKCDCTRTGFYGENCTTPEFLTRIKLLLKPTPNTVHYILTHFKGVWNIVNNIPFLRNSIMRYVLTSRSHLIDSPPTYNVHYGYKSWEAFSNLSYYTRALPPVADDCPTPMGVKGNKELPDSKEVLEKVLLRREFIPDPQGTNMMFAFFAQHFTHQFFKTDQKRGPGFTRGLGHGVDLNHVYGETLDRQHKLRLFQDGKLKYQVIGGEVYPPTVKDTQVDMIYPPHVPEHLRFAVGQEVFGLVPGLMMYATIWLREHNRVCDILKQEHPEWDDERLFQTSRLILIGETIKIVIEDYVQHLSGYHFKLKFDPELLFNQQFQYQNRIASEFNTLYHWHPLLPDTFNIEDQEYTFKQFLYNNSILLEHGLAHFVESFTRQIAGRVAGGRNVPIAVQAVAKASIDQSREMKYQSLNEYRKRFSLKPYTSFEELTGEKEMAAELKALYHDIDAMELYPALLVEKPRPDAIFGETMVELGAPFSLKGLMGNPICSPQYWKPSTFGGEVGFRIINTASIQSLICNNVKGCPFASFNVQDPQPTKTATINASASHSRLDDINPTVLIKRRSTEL
T2 sequence (Q63921 whole entry): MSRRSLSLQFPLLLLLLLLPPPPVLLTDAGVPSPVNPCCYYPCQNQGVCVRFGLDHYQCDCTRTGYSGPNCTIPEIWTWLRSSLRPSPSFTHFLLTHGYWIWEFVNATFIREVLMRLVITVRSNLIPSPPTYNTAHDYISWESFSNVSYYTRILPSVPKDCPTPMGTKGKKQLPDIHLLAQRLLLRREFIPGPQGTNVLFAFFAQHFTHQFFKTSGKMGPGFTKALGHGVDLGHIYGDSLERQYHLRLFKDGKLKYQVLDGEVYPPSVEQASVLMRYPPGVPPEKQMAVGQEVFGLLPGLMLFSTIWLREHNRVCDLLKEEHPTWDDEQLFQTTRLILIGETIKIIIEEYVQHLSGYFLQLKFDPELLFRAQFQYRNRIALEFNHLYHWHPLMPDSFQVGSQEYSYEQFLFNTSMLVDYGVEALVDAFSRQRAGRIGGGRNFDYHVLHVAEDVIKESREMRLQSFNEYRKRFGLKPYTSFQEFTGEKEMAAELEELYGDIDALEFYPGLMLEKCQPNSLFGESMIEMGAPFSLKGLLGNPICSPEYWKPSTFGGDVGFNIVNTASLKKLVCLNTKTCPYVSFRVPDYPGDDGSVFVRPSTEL
The assay can be described thus: In vitro for prostaglandin G/H synthase inhibitory activity against rat basophil leukemia type 1 cell homogenates, by measuring the radioactivity of [14C]-PGD2.

Assay [5] addresses T1, Polyunsaturated fatty acid 5-lipoxygenase. In words: In vitro inhibitory activity against 5-Lipoxygenase in rat by Peritoneal 5-lipoxygenase assay.

Where only a bound is given, the exact number is not on record here.

With `CCO/C(O)=C(/C=CC(=O)C(=O)c1ccccc1)Sc1ccccc1`, the ED50 in the assay with Mus musculus [1] was >2 mg ear-1; in the assay with Mus musculus [2], > 50 mg/kg. Moreover, the 50% inhibitory concentration (IC50) in assay [3] is 2000 nM; in assay [4], 3 µM; on Cyclooxygenase it was 12 µM.
Regarding `CCSC(=CC=C(O)C(=O)O)C(=O)O`, in the assay on Mus musculus [1], the ED50 is given as >0.5 mg ear-1.
With `CC(Cc1ccc(O)c(O)c1)C(C)Cc1ccc(O)c(O)c1` (stereo not given) [NORDIHYDROGUAIARETIC ACID], the ED50 in the assay on Mus musculus [1] is 0.1 mg ear-1; in the assay with Mus musculus [2] it was > 100 mg/kg. Moreover, the IC50 on Cyclooxygenase was > 50 µM.
With `CCOC(=O)C(=O)C=C/C(C(=O)c1ccccc1)=C(\O)OCC`, the ED50 in the assay with Mus musculus [1] was >2 mg ear-1.
For the compound `CCOC(=O)C(=O)C=C/C(=C(\O)OCC)c1ccccc1`, the ED50 with Mus musculus [1] is on record as >2 mg ear-1.
Still for that read-out and setting: the same measure for `CCOC(=O)C(=CC=C(C(=O)OCC)N(C)C)Sc1ccccc1`: >2 mg ear-1.
Take `CC(C)(C)c1cc(/C=C2\CCOC2=O)cc(C(C)(C)C)c1O`: the ED50 came to 0.3 mg ear-1 with Mus musculus [1] and 100 mg/kg in the assay on Mus musculus [2].
In the case of `NC1=NN(c2cccc(C(F)(F)F)c2)CC1` [BW-755C], the ED50 in the assay with Mus musculus [1] turned out to be 0.08 mg ear-1; in the assay on Mus musculus [2], 75 mg/kg. The IC50 at Cyclooxygenase amounted to 6 µM.
For `CC1=NN(CCOc2ccc3ccccc3c2)C(=O)C1` [NAFAZATROM], the ED50 with Mus musculus [1] was 2 mg ear-1; in the assay with Mus musculus [2], > 100 mg/kg.
Turning to `CCOC(=O)C(=O)C=C/C(Sc1ccccc1)=C(\O)c1ccccc1`, the ED50 in the assay on Mus musculus [1] was >2 mg ear-1.
With `O=c1c(O)c(-c2ccc(O)c(O)c2)oc2cc(O)cc(O)c12` [QUERCETIN], the ED50 in the assay with Mus musculus [1] was 1 mg ear-1; in the assay with Mus musculus [2] it was > 100 mg/kg. Moreover, the IC50 at Cyclooxygenase was > 50 µM.
With `CCOC(=O)C(=O)C=C/C(SCc1ccccc1)=C(\O)OCC`, the ED50 with Mus musculus [1] is reported as >2 mg ear-1.
The same measure, in the same setting: next, `CCO/C(O)=C(/C=CC=O)Sc1ccccc1`: 2 mg ear-1.
For `CCOC(=O)C(=CC=C(SC)C(=O)c1ccccc1)N(C)C`, the IC50 in assay [5] is > 50 µM; in assay [3] it was > 50000 nM; at Cyclooxygenase, > 50 µM.
With `CCOC(=O)C(=O)C=C/C(O)=C(\O)OCC`, the ED50 with Mus musculus [1] is on record as >2 mg ear-1.
The same measure, in the same setting: next, `O=C(O)C(O)=CC=Cc1ccccc1`: >5 mg ear-1.
